# Numbered stars: 1 amine (or outer) side, 2 acyl side, 3 side chain; on linkers, the order of the positions; unused ones are H or OH. Bridge positions count the residues as written; N and C are the ends. Square brackets hold non-standard residues; d marks the D form. Peptide text beside a SMILES is read from it. * marks the point of attachment. hPhe(3-Cl-4-CF3) = N[C@@H](CCc1ccc(C(F)(F)F)c(Cl)c1)C(=O)O; hPhe(3-F,4-CF3) = N[C@@H](CCc1ccc(C(F)(F)F)c(F)c1)C(=O)O; NMePhe(4-Me) = CN[C@@H](Cc1ccc(C)cc1)C(=O)O; NMeNle(6-CHF2) = CN[C@@H](CCCCC(F)F)C(=O)O; NMePhe(2-Cl) = CN[C@@H](Cc1ccccc1Cl)C(=O)O; NMedβ3hAla = C[C@H](CC(=O)[*:2])N(C)[*:1]; NMeGly(cPent) = CN[C@H](C(=O)O)C1CCCC1; Pro(4,4-F2) = O=C(O)[C@@H]1CC(F)(F)CN1; NMeCha = CN[C@@H](CC1CCCCC1)C(=O)O; NMeChg = CN[C@H](C(=O)O)C1CCCCC1; NMeI = CC[C@H](C)[C@H](NC)C(=O)O; NMeD = CN[C@@H](CC(=O)O)C(=O)O; NMeL = CN[C@@H](CC(C)C)C(=O)O; NMeNva = CCC[C@H](NC)C(=O)O; NMeV = CN[C@H](C(=O)O)C(C)C; d(β3hA) = C[C@@H](N)CC(=O)O; Morpholide = C1CN(*)CCO1; NMeA = CN[C@@H](C)C(=O)O; Piperidide = C1CCN(*)CC1; Pyrrolidide = C1CCN(*)C1; Ac5c = NC1(C(=O)O)CCCC1; Aze = O=C(O)[C@@H]1CCN1; Thp = NC1(C(=O)O)CCOCC1; Sar = CNCC(=O)O
# Test system: Human pancreatic cancer cell line AsPC-1 (G12D mutation Kras)
# Assay: AsPC-1 cell growth inhibition (AsPC-1 CGI)
# Type: cell-based
# Conditions: read-out: AsPC-1 cell growth inhibition, 50% growth inhibitory concentration (IC50 value); 96 hours, CellTiter-Glo, values classified in ranges
# Description: Test compounds were serially dilated with dimethyl sulfoxide, and 200 nL was then dispensed to a U-bottom 96-well plate using Labcyte Echo. […] The cell suspension was dispensed to a. plate containing a test compound at 100 μL per well and incubated at 37° C. in a 5% carbon dioxide gas incubator. 96 hours later, 80 μL of CellTiter-Glo (Promega) was added to each well and fluorescence was measured.
row,SMILES,IC50 [nM]
1,"CC[C@H](C)[C@@H]1NC(=O)[C@H](CC(C)C)N(C)C(=O)C[C@@H](C(=O)N2CCCCC2)N(C)C(=O)[C@H](C2CCCC2)N(C)C(=O)C2(CCCC2)NC(=O)[C@@H]2CCCN2C(=O)[C@H](CCc2ccc(C(F)(F)F)c(F)c2)NC(=O)CN(C)C(=O)[C@H](C2CCCC2)N(C)C(=O)[C@@H]2CCN2C(=O)[C@H](C)N(C)C1=O [Compound 1099] ([NMeL]I[NMeA][Aze][NMeGly(cPent)][Sar][hPhe(3-F,4-CF3)]P[Ac5c][NMeGly(cPent)][NMeD]-Piperidide; lactam N-11)",≤ 20
2,CC[C@H](C)[C@@H]1NC(=O)[C@H](CC(C)C)N(C)C(=O)C[C@@H](C(=O)N2CCCC2)N(C)C(=O)[C@H]([C@@H](C)CC)N(C)C(=O)C2(CCCC2)NC(=O)[C@@H]2CCCN2C(=O)[C@H](CCc2ccc(C(F)(F)F)c(Cl)c2)NC(=O)CN(C)C(=O)[C@H](CC2CCCCC2)N(C)C(=O)CN(C)C(=O)CN(C)C1=O [Compound 1662] ([NMeL]I[Sar][Sar][NMeCha][Sar][hPhe(3-Cl-4-CF3)]P[Ac5c][NMeI][NMeD]-Pyrrolidide; lactam N-11),≤ 20
3,CC[C@H](C)[C@@H]1NC(=O)[C@H](CC(C)C)N(C)C(=O)C[C@@H](C)NC(=O)[C@H](C2CCCCC2)N(C)C(=O)C2(CCCC2)NC(=O)[C@@H]2CCCN2C(=O)[C@H](CCc2ccc(C(F)(F)F)c(Cl)c2)NC(=O)CN(C)C(=O)[C@H](Cc2ccc(C)cc2)N(C)C(=O)CN(C)C(=O)CN(C)C1=O [Compound 1856] (cyclo([Ac5c][NMeChg][d(β3hA)][NMeL]I[Sar][Sar][NMePhe(4-Me)][Sar][hPhe(3-Cl-4-CF3)]P)),> 500
4,CC[C@H](C)[C@@H]1NC(=O)[C@H](CC(C)C)N(C)C(=O)C[C@@H](C(=O)N(C)C)N(C)C(=O)[C@H](C2CCCC2)N(C)C(=O)C2(CCCC2)NC(=O)[C@H](Cc2ccccc2Cl)N(C)C(=O)[C@H](CCc2ccc(C(F)(F)F)c(Cl)c2)NC(=O)CN(C)C(=O)[C@H](CC2CCCCC2)N(C)C(=O)[C@@H]2CCN2C(=O)[C@H](C)N(C)C1=O [Compound 1009] ([NMeL]I[NMeA][Aze][NMeCha][Sar][hPhe(3-Cl-4-CF3)][NMePhe(2-Cl)][Ac5c][NMeGly(cPent)][NMeD]-NMe2; lactam N-11),> 500
5,"CCC[C@H]1C(=O)N[C@@H]([C@@H](C)CC)C(=O)N(C)CC(=O)N(C)CC(=O)N(C)[C@@H](Cc2ccc(C)cc2)C(=O)N(C)CC(=O)N[C@@H](CCc2ccc(C(F)(F)F)c(Cl)c2)C(=O)N2CC(F)(F)C[C@H]2C(=O)NC2(CCCC2)C(=O)N(C)[C@@H](C2CCCCC2)C(=O)N(C)[C@H](C(=O)N2CCCC2)CC(=O)N1C [Compound 1296] ([NMeNva]I[Sar][Sar][NMePhe(4-Me)][Sar][hPhe(3-Cl-4-CF3)][Pro(4,4-F2)][Ac5c][NMeChg][NMeD]-Pyrrolidide; lactam N-11)",≤ 20
6,"CC[C@H](C)[C@@H]1NC(=O)[C@H](CC(C)C)N(C)C(=O)C[C@@H](C)N(C)C(=O)[C@H](CC(C)C)N(C)C(=O)C2(CCOCC2)NC(=O)[C@@H]2CCCN2C(=O)[C@H](CCc2ccc(C(F)(F)F)c(F)c2)NC(=O)CN(C)C(=O)[C@H](CC2CCCCC2)N(C)C(=O)CN(C)C(=O)CN(C)C1=O [Compound 407] (cyclo(I[Sar][Sar][NMeCha][Sar][hPhe(3-F,4-CF3)]P[Thp][NMeL][NMedβ3hAla][NMeL]))",> 500
7,CC[C@H](C)[C@@H]1NC(=O)[C@H](CC(C)C)N(C)C(=O)C[C@@H](C(=O)N2CCCCC2)N(C)C(=O)[C@H](CCCCC(F)F)N(C)C(=O)C2(CCCC2)NC(=O)[C@@H]2CCCN2C(=O)[C@H](CCc2ccc(C(F)(F)F)c(Cl)c2)NC(=O)CN(C)C(=O)[C@H](CC2CCCCC2)N(C)C(=O)CN(C)C(=O)CN(C)C1=O [Compound 653] ([NMeL]I[Sar][Sar][NMeCha][Sar][hPhe(3-Cl-4-CF3)]P[Ac5c][NMeNle(6-CHF2)][NMeD]-Piperidide; lactam N-11),> 500
8,CC[C@H](C)[C@@H]1NC(=O)[C@H](CC(C)C)N(C)C(=O)C[C@@H](C)NC(=O)[C@H](C(C)C)N(C)C(=O)C2(CCCC2)NC(=O)[C@@H]2CCCN2C(=O)[C@H](CCc2ccc(C(F)(F)F)c(Cl)c2)NC(=O)CN(C)C(=O)[C@H](CC2CCCCC2)N(C)C(=O)CN(C)C(=O)[C@@H]2CCN2C1=O [Compound 1020] (cyclo([Ac5c][NMeV][d(β3hA)][NMeL]I[Aze][Sar][NMeCha][Sar][hPhe(3-Cl-4-CF3)]P)),> 500
9,CC[C@H](C)[C@@H]1NC(=O)[C@H](CC(C)C)N(C)C(=O)C[C@@H](C(=O)N2CCOCC2)NC(=O)[C@H]([C@@H](C)CC)N(C)C(=O)C2(CCCC2)NC(=O)[C@@H]2CCCN2C(=O)[C@H](CCc2ccc(C(F)(F)F)c(Cl)c2)NC(=O)CN(C)C(=O)[C@H](CC2CCCCC2)N(C)C(=O)CN(C)C(=O)CN(C)C1=O [Compound 1277] ([NMeL]I[Sar][Sar][NMeCha][Sar][hPhe(3-Cl-4-CF3)]P[Ac5c][NMeI]D-Morpholide; lactam N-11),> 500
